Reference: patent publication US20100022553A1, “Therapeutic Combination Comprising an Aurora Kinase Inhibitor and Imatinib” (NERVIANO MEDICAL SCIENCES S.R.L., priority 2008, published 2010)

Legend:
[1] = tested on: Human myeloid leukemia K-562 cell line; conditions: K562 s.c. in SCID mice, Imatinib 100 mg/kg per os, days 7-15; for Time to reach 1 g: Compound 1 15 mg/kg intraperitoneally twice a day; for T-C: delay of treated vs control tumors to reach 1 g, Compound 1 15 mg/kg i.p.
Description: SCID female mice, from Harlan (Italy), were maintained in cages with paper filter cover, food and bedding sterilized and water acidified.
For in vivo experiments 10^7 K562 cells were implanted subcutaneously in SCID mice.
Tumor growth and body weight were measured every 3 days. Tumor growth was assessed by caliper. […] This delay (T-C value) was defined as the difference of time (in days) required for the treatment group (T) and the control group(C) tumors to reach a predetermined size (1 g).
Toxicity was evaluated on the basis of body weight reduction.

[2] = molecular target: T315I mutation of Abl (Bcr-Abl) (Homo sapiens, UniProt P00519, T315I); conditions: cited from earlier work

CO[C@@H](C(=O)N1Cc2[nH]nc(NC(=O)c3ccc(N4CCN(C)CC4)cc3)c2C1)c1ccccc1 [Compound 1, N-[5-(2-Methoxy-2-phenyl-acetyl)-1,4,5,6-tetrahydro-pyrrolo[3,4-c]pyrazol-3-yl]-4-(4-methyl-piperazin-1yl)-benzamide]
Time to reach 1 g [1]: 27.3 days | T-C [1]: 11.5 days

Cc1ccc(NC(=O)c2ccc(CN3CCN(C)CC3)cc2)cc1Nc1nccc(-c2cccnc2)n1 [Imatinib]
Time to reach 1 g [1]: 25.1 days | T-C [1]: 9.3 days

Cc1ccc(NC(=O)c2ccc(CN3CC[C@H](N(C)C)C3)c(C(F)(F)F)c2)cc1Nc1nccc(-c2cncnc2)n1 [Inno-406]
activity against the T315I mutation [2]: inactive
